# Reference: patent publication US12527785B2, “Renin-angiotensin-aldosterone system (RAAS) inhibitors in the treatment of pancreatic ductal carcinoma” (OCHSNER CLINIC FOUNDATION, priority 2023, dated 2026)
# Assays:
# PANC-1 cells = test: WST1 cell proliferation assay, PANC-1 cells; type: cell-based, human; conditions: 10% FCS-DMEM
# Procedure: (§1) PDA cell line (PANC-1 or HS766T) or patient cancer cells (PaCa9) were trypsinized with 1% trypsin in Hank's Balanced Salt Solution (HBSS), counted, washed, and resuspended in serum free AIM media (ThermoFisher Scientific, Waltham, MA) or complete Dulbecco's Modified Eagle Medium (DMEM) supplemented with 10% fetal bovine serum, […], 100 U/ml of penicillin G, and […] of streptomycin. Cells at a concentration of 2-4×10^4 cells/well in 100 μl culture medium were seeded in triplicate in 96 well plates, then cultured in a humidified incubator at 37° C. and 5% CO2. On the next day, cell supernatant was discarded and compounds (e.g., drugs) of the present disclosure in 200 μl medium were added with the concentrations indicated in the following Examples. After 72 hours of culture, cell proliferation reagent WST1 (20 μl/well, Sigma Aldrich Inc, St. Louis, MO) were added and plates were read using an ELISA reader at 2 hours and 4 hours under the wavelength of 450 nm. The measured absorbance (OD value) was recorded and graphed and statistically analyzed using GraphPad Prism 8, t-test, or t-test with Bonferroni correction.
# [1] = Toxicity, body weight and deaths observed in the in vivo xenograft studies
# Description: (§2) Human PDCA cell line PANC-1 was transduced with pre-made lentiviral vectors encoding luciferase (firefly)/red fluorescent protein (RFP) to enable monitoring of the growth of primary tumor and metastasis. […] For in vivo experiments, Nonobese diabetic/severe combined immunodeficiencyNOD-SCID mice (Jackson Labs, Bar Harbor, ME, or inhouse breeding) were first brought under anesthesia with isoflurane (2.5% in 100% oxygen, 1 L/min) in an induction chamber and maintained under adequate anesthesia (isoflurane inhalation) while being laid on a warming pad throughout the surgical procedure. For tumor generation, 5×10^4 luciferase-tagged PANC-1 cells were co-inoculated with 3×10^5 lymph node stromal cell (LNSC) analog HK cells. The mice received a 0.75-1.2 cm long incision (on the left side of the body slightly medial to the splenic silhouette) to exteriorize the spleen and pancreas. While gently retracting the pancreas laterally, a 30 G needle was inserted along the length of the pancreas from the tail to the pancreatic head region. Then, 10 μl of cell suspension was injected as the needle was withdrawn to the mid-body of the pancreas. The needle was removed, and the area was inspected for leakage and bleeding. The pancreas and spleen were internalized with forceps and the abdominal muscle layer was closed with interrupted stitches (3-0 silk suture). The overlying skin was closed with a second set of interrupted stitches. Buprenorphine SR-LAB was injected subcutaneously immediately after the surgery for pain relief.
# After the surgery, tumor growth and metastatic tumor burden were monitored and assessed weekly for luciferase activity by bioluminescence imaging (BLI) using Lago Imaging System (Spectral Instruments Imaging, Tucson, AZ). Mice were anesthetized using isoflurane for all imaging procedures. Mice were administered intraperitoneally with luciferin (10 mg/kg) and imaged in 10-20 minutes for maximum luciferase signal plateau. Images were analyzed using Aura Imaging software. […] […] […] Data was statistically analyzed using t-test, or t-test with Bonferroni correction.
# HS766T cells = test: WST1 cell proliferation assay, HS766T cells; type: cell-based; conditions: 10% FCS-DMEM
# Procedure: as §1
# [2] = Serum concentration of EMA401 after oral dosing in humans; type: in vivo, human
# [3] = tested on: PaCa-9 PDAC patient tumor cells; test: WST1 cell proliferation assay, PaCa-9 PDAC patient tumor cells; type: cell-based, human; conditions: 10% FCS-DMEM
# Procedure: as §1, with “Louis, MO) were added and plates were read using an ELISA reader at 2 hours and 4 hours under the wavelength of 450 nm.” left out
# [4] = tested on: PANC-1 tumor orthotopic xenograft; test: PANC-1 tumor orthotopic xenograft mouse model (BLI tumor burden, tumor weight); type: in vivo; conditions: for Tumor weight / Tumor weight, mean: 100 mg/kg EMA401, DWK 8.5; for Tumor weight: Table 17A, control 0.9444; for Tumor weight lowered versus control: EMA401 (100 mg/kg); for BLI data, % of control / BLI data, mean: four weeks; for BLI data, mean: control 3.003
# Description: as §2
# After the surgery, tumor growth and metastatic tumor burden were monitored and assessed weekly for luciferase activity by bioluminescence imaging (BLI) using Lago Imaging System (Spectral Instruments Imaging, Tucson, AZ). Mice were anesthetized using isoflurane for all imaging procedures. Mice were administered intraperitoneally with luciferin (10 mg/kg) and imaged in 10-20 minutes for maximum luciferase signal plateau. Images were analyzed using Aura Imaging software. Once the BLI levels of xenografted tumor reached 5×10^8 photons (around 7-9 weeks post PANC-1 cell injection), the mice were grouped based on their BLI level and compounds (e.g., drugs) of the present disclosure were given by gavage daily to each group for 4 weeks. […] Upon sacrifice after 4 weeks of treatment, primary tumors and mouse organs were harvested, weighed, imaged, and formalin-fixed for (hematoxylin and eosin) H&E and immunohistochemistry staining. Data was statistically analyzed using t-test, or t-test with Bonferroni correction.
# [5] = tested on: PDCA cells (PANC-1, HS766T, PaCa9); test: In vitro PDCA cell proliferation (WST1), summary statements over the cell lines tested; type: cell-based; conditions: 10 μM; all cell lines tested
# Procedure: as §1
smiles,measurement,setting,value
COc1ccc2c(c1OCc1ccccc1)C[C@@H](C(=O)O)N(C(=O)C(c1ccccc1)c1ccccc1)C2 [EMA401],"cell proliferation, WST1 absorbance (OD value, 450 nm), mean","PANC-1 cells; EMA 10 μM, Table 1, 2 h, control 3.618",2.976
same,"cell proliferation, WST1 absorbance (OD value, 450 nm), mean","PANC-1 cells; EMA 50 μM, Table 1, 2 h, control 3.618",2.957
same,"cell proliferation, WST1 absorbance (OD value, 450 nm), mean","PANC-1 cells; EMA401 10 μM, Table 5A, 2×10^4 cells per well, Medium/DMSO 3.348",2.872
same,"cell proliferation, WST1 absorbance (OD value, 450 nm), mean","PANC-1 cells; EMA401 50 μM, Table 5A, 2×10^4 cells per well, Medium/DMSO 3.348",0.691
same,End of study body weights versus control,[1]; 100 mg/kg EMA401 for 8 weeks,not different
same,Drug-related toxicity,"[1]; 100 mg/kg EMA401 for 8 weeks (Table 16, Tables 17A-17C)",No drug-related toxicity was observed
same,Deaths during the study,"[1]; 100 mg/kg EMA401 for 8 weeks, one control animal died",no EMA401-treated animal died
same,"cell proliferation, WST1 absorbance (OD value, 450 nm), mean","HS766T cells; EMA 10 μM, Table 2, 2 h, control 3.214",1.360
same,"cell proliferation, WST1 absorbance (OD value, 450 nm), mean","HS766T cells; EMA 50 μM, Table 2, 2 h, control 3.214",1.41
same,"cell proliferation, WST1 absorbance (OD value, 450 nm), mean","HS766T cells; EMA401 10 μM, Table 6A, 2×10^4 cells per well, control 3.339",3.290
same,"cell proliferation, WST1 absorbance (OD value, 450 nm), mean","HS766T cells; EMA401 50 μM, Table 6A, 2×10^4 cells per well, control 3.339",0.593
same,Serum concentration,"[2]; 100 mg EMA401 p.o. in men and women, converted with mol wt 507.6",2 µM
same,Serum concentration,[2]; 400 mg/day EMA401 in humans,8 µM
same,Serum concentration,"[2]; 600 mg/day p.o., extrapolated (would produce)",12 µM
same,"cell proliferation, WST1 absorbance (OD value, 450 nm), mean","[3]; EMA 10 μM, Table 3, 1 h, Medium/DMSO 3.571",2.088
same,"cell proliferation, WST1 absorbance (OD value, 450 nm), mean","[3]; EMA 10 μM, Table 4, 2 h, Medium/DMSO >3.60",2.910
same,"cell proliferation, WST1 absorbance (OD value, 450 nm), mean","[3]; EMA 50 μM, Table 3, 1 h, Medium/DMSO 3.571",2.000
same,"cell proliferation, WST1 absorbance (OD value, 450 nm), mean","[3]; EMA 50 μM, Table 4, 2 h, Medium/DMSO >3.60",2.447
same,"cell proliferation, WST1 absorbance (OD value, 450 nm), mean","[3]; EMA401 10 μM, Table 7A, 2×10^4 cells per well, control 3.535",3.257
same,"cell proliferation, WST1 absorbance (OD value, 450 nm), mean","[3]; EMA401 50 μM, Table 7A, 2×10^4 cells per well, control 3.535",0.541
same,Tumor weight,[4]; all animals,0.7215 g
same,Tumor weight,[4]; excluding one outlier,0.6174 (Excluding
same,"Tumor weight, mean","[4]; Table 17B (repeated study), control 0.8041",0.5383 g
same,"Tumor weight, mean","[4]; Table 17C (both studies pooled, including the outlier), control 0.8763",0.6347 g
same,Tumor weight fall versus control,"[4]; 100 mg/kg EMA401 for 8 weeks, first study, all animals, did not reach statistical significance",24%
same,Tumor weight decrease versus control,"[4]; 100 mg/kg EMA401 for 8 weeks, first study, one outlier omitted, p=0.036",35%
same,Effect on tumor weight,"[4]; EMA401 60 mg/kg, short-term (4 week) low dose study",did not reduce tumor weight
same,Tumor weight lowered versus control,"[4]; 4 week study, not statistically significant",26%
same,Tumor weight lowered versus control,"[4]; after 8 weeks treatment (example 5), significant",33%
same,"BLI data, % of control",[4]; EMA (60 mg/kg),59%
same,"BLI data, mean",[4]; EMA (60 mg/kg),1.782
same,"BLI data, % of control",[4]; EMA (100 mg/kg),61%
same,"BLI data, mean",[4]; EMA (100 mg/kg),1.834
same,"Effective (statistically significant, p<0.05, decrease in cell proliferation by WST1 assay)",[5],effective in all cell lines tested
